Earlier results, collected in PMC7463651, “Phase I/Ib Study of Tenalisib (RP6530), a Dual PI3K δ/γ Inhibitor in Patients with Relapsed/Refractory T-Cell Lymphoma” (Cancers, 2020).
Read-outs that look alike come from different tables or passages of the source.

System: PTCL/CTCL
Parameters: method as in PMID 21245435, PMID 28641053, PMID 26101246
Settings: cited from earlier work

Row | Molecule | Overall response rate (ORR) (FDA approved single agent) | Overall response rate (ORR) (in CD30+ T-cells)
1 | O=C(/C=C/c1cccc(S(=O)(=O)Nc2ccccc2)c1)NO [belinostat] | 26% | 
2 | C#CCC(Cc1cnc2nc(N)nc(N)c2n1)c1ccc(C(=O)N[C@@H](CCC(=O)O)C(=O)O)cc1 (stereo partly shown) [pralatrexate] | 29% | 
3 | C/C=C1\NC(=O)[C@H]2CSSCC/C=C/[C@H](CC(=O)N[C@H](C(C)C)C(=O)N2)OC(=O)[C@H](C(C)C)NC1=O [romidepsin] | 25% | 
4 | brentuximab vedotin |  | 68%
